# Measurements as given in patent publication US8034382B2, “Preparation method for biodegradable micro-particles containing drugs” (The Board of Trustees of the University of Arkansas, priority 2008, dated 2011).
# Assays:
# [1] = Encapsulation efficiency of drug in PLA/PLGA microparticles prepared with hydroxyapatite gel (UV absorption); type: physicochemical; settings: for pH of aqueous suspension giving best encapsulation efficiency: hydroxyapatite gel suspension, PLA/PLGA polymers
# Description: Leuprolide acetate and poly(lactic acid-co-glycolic acid) (PLGA) RG502H or PLA R202H were dissolved in a 24/76 (v/v) methanol/dichloromethane mixture at a concentration of 20% polymer and 10% leuprolide (w/v) to prepare the polymer-drug solution. An aqueous suspension of hyroxyapatite was prepared by dissolving 6 g of CaO in 400 ml water. Then phosphoric acid was added to adjust the pH of the aqueous suspension to between 9.0 and 10.0. Hydroxyapatite gel was formed in situ in the aqueous suspension under these conditions by the reaction 10 CaO+6 H3PO4=Ca10(PO4)6(OH)2+8 H2O. The drug/polymer solution (2 or 3 ml) was dispersed into the aqueous suspension medium. The dispersion was initially homogenized by a high-shear mixer at 5,000 or more rpm for 5 minutes. The solvents were then evaporated by stirring at 600 rpm for 1 hour or longer. Then concentrated HCl was added slowly until the hydroxyapatite dissolved and the suspension cleared. Hydroxyapatite is dissolved by the reaction Ca10(PO4)6(OH)2+20 HCl=10 CaCl2+6 H3PO4+2 H2O. The solidified microparticles were recovered by centrifugation and filtration.
# Encapsulation efficiency refers to the mass of drug recovered in microparticles divided by the starting mass of drug in the polymer-drug phase. To quantify drug in microparticles, the microparticles were first dissolved in an ethanol/dichloroethane (28/72 v/v) mixture. The drug content of the solution was then measured by ultraviolet absorption.
# In other experiments, the pH of the suspending medium was varied. […] Small anionic and cationic small molecule drugs were also tested. […] Verapamil HCl and nicardipine HCl were the small-molecule amine-containing drugs tested. Piroxicam, […], and salicylic acid were the small molecule anionic drugs tested.
# [2] = Release kinetics of leuprolide acetate from PLGA microparticles (UV absorption of supernatant); type: physicochemical
# Description: The release kinetics of leuprolide acetate from the PLGA microparticles prepared as described herein was determined and the results are shown in FIG. 1. Concentration of drug in the supernatant was measured by ultraviolet absorption. […] Initial burst release occurs due to the fast dissolution of peptide located at the microparticle surface followed by a time lag of 4-5 days. […] During the middle portion of the curve, peptide release occurs at a near constant rate.
# FIG. 2 compares the release curve of FIG. 1 for 10% RG 502H with a published release curve for leuprolide acetate from microparticles formed by conventional oil-in-water emulsion with poly(vinyl alcohol) as emulsifier (D'Souza et al., 2005, AAPS PHARM. Sci. Tech. 6(4), E553).
compound,measurement,setting,value
"CCNC(=O)[C@@H]1CCCN1C(=O)[C@H](CCCNC(=N)N)NC(=O)[C@H](CC(C)C)NC(=O)[C@@H](CC(C)C)NC(=O)[C@H](Cc1ccc(O)cc1)NC(=O)[C@H](CO)NC(=O)[C@H](Cc1c[nH]c2ccccc12)NC(=O)[C@H](Cc1c[nH]cn1)NC(=O)[C@@H]1CCC(=O)N1 [leuprolide acetate, Leuprolide acetate]",Encapsulation efficiency,[1]; pH of the suspending medium 7.0,90%
same,Encapsulation efficiency,"[1]; pH of the suspending medium pH 9.0 to pH 10.0, hydroxyapatite gel",≥ 95%
same,Release curve compared with published curve for conventional o/w emulsion (poly(vinyl alcohol)) microparticles,"[2]; 10% RG 502H, FIG. 2, versus D'Souza et al. 2005",nearly identical
same,Release profile (shape),"[2]; PLGA microparticles, FIG. 1",typical tri-phase
same,Time lag after initial burst release,"[2]; PLGA microparticles, FIG. 1",4 to 5 days
COc1ccc2cc([C@H](C)C(=O)O)ccc2c1 [naproxen acid],pH of aqueous suspension giving best encapsulation efficiency,[1],~5.0
CN1C(C(=O)Nc2ccccn2)=C(O)c2ccccc2S1(=O)=O [piroxicam],pH of aqueous suspension giving best encapsulation efficiency,[1],~5.0
O=C(O)c1ccccc1O [salicylic acid],pH of aqueous suspension giving best encapsulation efficiency,[1],~5.0
